A short description of data set [1]: Inhibition of chimpanzee P2Y14 receptor. On the set-up: species or system Pan troglodytes.
Data set [2] addresses T1, P2Y purinoceptor 14 (Mus musculus, UniProt Q9ESG6).
T1 sequence (Q9ESG6 whole entry): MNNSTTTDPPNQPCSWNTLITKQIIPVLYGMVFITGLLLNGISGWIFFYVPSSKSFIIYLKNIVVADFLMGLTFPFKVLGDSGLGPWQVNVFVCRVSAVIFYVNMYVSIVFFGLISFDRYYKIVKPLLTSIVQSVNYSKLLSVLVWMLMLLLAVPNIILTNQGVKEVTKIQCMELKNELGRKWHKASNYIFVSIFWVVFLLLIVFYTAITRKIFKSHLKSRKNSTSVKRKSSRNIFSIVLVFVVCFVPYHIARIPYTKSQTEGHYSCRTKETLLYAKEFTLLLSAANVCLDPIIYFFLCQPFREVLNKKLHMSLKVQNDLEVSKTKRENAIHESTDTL
The data set can be described thus: Inhibition of mouse P2Y14 receptor.

The nature of data set [3]: Clearance in C57BL/6 mouse at 50 mg/kg, po. In kind it is ADME, organism-based. The note with it: in vivo.
Data set [4] is described as follows: Half life in C57BL/6 mouse at 50 mg/kg, po. In kind it is ADME, organism-based. The note with it: in vivo.
For data set [5], the target named is T1, P2Y purinoceptor 14. The data set is described as follows: Inhibition of mouse P2Y14 receptor in presence of 2% HSA.

SMILES strings stand for the structures.

These results are taken from ChEMBL document CHEMBL4346722, “Recent progress on the discovery of P2Y14 receptor antagonists” (Eur J Med Chem, 2019).

In data set [1], `O=C(O)c1cc(-c2ccc(C3CCNCC3)cc2)c2ccc(-c3ccc(C(F)(F)F)cc3)cc2c1` [PPTN] had a Ki of 1.9 nM.

For `Cc1cc(F)cc(C)c1COc1ccc2c(-c3ccsc3)cc(C(=O)O)cc2c1`, in data set [1], the IC50 was 4 nM and the Ki was 14 nM.

For `O=C(O)c1cc(-c2ccc([C@@H](O)C(F)F)cc2)c2ccc(-c3ccc(C(F)(F)F)cc3)cc2c1`, the figures for the Ki at P2Y purinoceptor 14 [2] and at P2Y purinoceptor 14 [5] were 4 nM and 1290 nM, respectively. In data set [3], this compound returned a CL/F of 0.096 L/h/kg. In data set [4], this compound showed a half-life of 3 h.

As a reminder, the Ki is a dissociation constant, usually derived from enzyme kinetics or from competition with a known ligand. Broadly, the IC50 is the concentration that inhibits the measured activity by half. Read a low IC50 as greater potency in that assay. As a reminder, the CL/F is clearance divided by bioavailability, as obtained after extravascular dosing. What is called half-life is the time in which the quantity being followed falls by half.
